Experimental findings from PubChem BioAssay AID256 (DTP/NCI, 2004) are described below.

“And” between values parts separate entries of the source, which are not always exact repeats. Equal values may be shown once. Toxic doses and inconclusive results are not listed.

In this assay the test system is CD2F1 mice, L1210 leukemia ip, survival T/C. Kind of assay: NCI In Vivo Anticancer Drug Screen. Data for tumor model L1210 Leukemia (intraperitoneal) in CD2F1 (CDF1) mice. The note with it: higher = longer survival. In short, it runs like this:
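Each value reflects a quotient of treated over vehicle control outcomes in mice with a transplanted tumor.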

The mark [1] stands for this setting: endpoint: mean survival time, dose: 100.0 mg/kg/injection, schedule: Q01DX001 (ip), vehicle: saline with Tween-80.

On to `CCCCCCCCCCCCCCCCCC(=O)OCC(=O)OCC(=O)[C@]1(O)Cc2c(O)c3c(c(O)c2[C@@H](OC2CC(N)C(O)C(C)O2)C1)C(=O)c1c(OC)cccc1C3=O` (some centres undefined), for which the T/C is 116 % of control (endpoint: mean survival time, dose: 0.37 mg/kg/injection, schedule: Q01DX009 (ip), vehicle: saline); 122 % of control and 112 % of control (endpoint: mean survival time, dose: 0.39 mg/kg/injection, schedule: Q01DX005 (ip), vehicle: water); 115 % of control (endpoint: mean survival time, dose: 0.75 mg/kg/injection, schedule: Q01DX009 (ip), vehicle: saline); 118 % of control and 119 % of control (endpoint: mean survival time, dose: 0.78 mg/kg/injection, schedule: Q01DX005 (ip), vehicle: water); 115 % of control (endpoint: mean survival time, dose: 1.5 mg/kg/injection, schedule: Q01DX009 (ip), vehicle: saline); 152 % of control (endpoint: mean survival time, dose: 3.13 mg/kg/injection, schedule: Q01DX005 (ip), vehicle: other). The T/C by setting is: (endpoint: mean survival time, dose: 3.13 mg/kg/injection, schedule: Q01DX005 (ip), vehicle: water) 209 % of control; (endpoint: mean survival time, dose: 6.25 mg/kg/injection, schedule: Q01DX005 (ip), vehicle: other) 156 % of control; (endpoint: mean survival time, dose: 6.25 mg/kg/injection, schedule: Q01DX005 (ip), vehicle: water) 124 % of control; (endpoint: mean survival time, dose: 12.0 mg/kg/injection, schedule: Q01DX009 (ip), vehicle: saline) 157 % of control; (endpoint: mean survival time, dose: 12.5 mg/kg/injection, schedule: Q01DX005 (ip), vehicle: other) 90 % of control.

For `Nc1ccc(N=Nc2ccccc2)c(N)c1`, the T/C is 97 % of control (endpoint: mean survival time, dose: 100.0 mg/kg/injection, schedule: Q04DX003 (ip), vehicle: saline); 90 % of control (endpoint: mean survival time, dose: 200.0 mg/kg/injection, schedule: Q04DX003 (ip), vehicle: saline); 100 % of control (endpoint: mean survival time, dose: 400.0 mg/kg/injection, schedule: Q04DX003 (ip), vehicle: saline).

`Nc1ccccc1CCc1ccccc1N`: the T/C (endpoint: mean survival time, dose: 100.0 mg/kg/injection, schedule: Q04DX003 (ip), vehicle: saline with Tween-80) is 100 % of control; the T/C (endpoint: mean survival time, dose: 200.0 mg/kg/injection, schedule: Q04DX003 (ip), vehicle: saline with Tween-80) is 102 % of control; the T/C (endpoint: mean survival time, dose: 400.0 mg/kg/injection, schedule: Q04DX003 (ip), vehicle: saline with Tween-80) is 93 % of control.

On to `O=C(O)CCC(=O)CC1CCCCC1`, for which the T/C runs as follows: (endpoint: mean survival time, dose: 50.0 mg/kg/injection, schedule: Q01DX009 (ip), vehicle: saline with Tween-80) 98 % of control; (endpoint: mean survival time, dose: 100.0 mg/kg/injection, schedule: Q01DX009 (ip), vehicle: saline with Tween-80) 105 % of control; (endpoint: mean survival time, dose: 200.0 mg/kg/injection, schedule: Q01DX009 (ip), vehicle: saline with Tween-80) 98 % of control.

As to `C/C=C1/CC2C=Nc3cc(O)c(OC)cc3C(=O)N2C1` (centres undefined), the T/C by setting is: (endpoint: median survival time, dose: 0.02 mg/kg/injection, schedule: Q01DX005 (ip), vehicle: DMSO) 100 % of control; (endpoint: median survival time, dose: 0.04 mg/kg/injection, schedule: Q01DX005 (ip), vehicle: DMSO) 101 % of control; (endpoint: median survival time, dose: 0.08 mg/kg/injection, schedule: Q01DX005 (ip), vehicle: DMSO) 104 % of control; (endpoint: median survival time, dose: 0.16 mg/kg/injection, schedule: Q01DX005 (ip), vehicle: DMSO) 113 % of control; (endpoint: median survival time, dose: 0.32 mg/kg/injection, schedule: Q01DX005 (ip), vehicle: DMSO) 121 % of control.

On to `NNC(=O)CCCCCC/C=C/CCCCCCCO`, for which the T/C is, setting by setting: (endpoint: mean survival time, dose: 50.0 mg/kg/injection, schedule: Q01DX001 (ip), vehicle: saline with Tween-80) 98 % of control; under setting [1], 108 % of control; (endpoint: mean survival time, dose: 200.0 mg/kg/injection, schedule: Q01DX001 (ip), vehicle: saline with Tween-80) 101 % of control.

As to `Cl`, the T/C runs as follows: (endpoint: mean survival time, dose: 6.25 mg/kg/injection, schedule: Q01DX009 (ip), vehicle: saline sonified) 103 % of control; (endpoint: mean survival time, dose: 6.25 mg/kg/injection, schedule: Q04DX003 (ip), vehicle: saline with Tween-80) 100 % of control; (endpoint: mean survival time, dose: 12.5 mg/kg/injection, schedule: Q01DX009 (ip), vehicle: saline sonified) 101 % of control; (endpoint: mean survival time, dose: 12.5 mg/kg/injection, schedule: Q04DX003 (ip), vehicle: saline with Tween-80) 98 % of control; (endpoint: mean survival time, dose: 25.0 mg/kg/injection, schedule: Q01DX009 (ip), vehicle: saline sonified) 106 % of control; (endpoint: mean survival time, dose: 25.0 mg/kg/injection, schedule: Q04DX003 (ip), vehicle: saline with Tween-80) 98 % of control.

As for `O=C(O)CS(=O)(=O)O`, the T/C runs as follows: (endpoint: mean survival time, dose: 50.0 mg/kg/injection, schedule: Q04DX002 (ip), vehicle: saline) 100 % of control; (endpoint: mean survival time, dose: 100.0 mg/kg/injection, schedule: Q04DX002 (ip), vehicle: saline) 100 % of control; (endpoint: mean survival time, dose: 200.0 mg/kg/injection, schedule: Q04DX002 (ip), vehicle: saline) 100 % of control.

Take `OCC1OC(n2cnc3c(NO)nc(NO)nc32)C(O)C1O` (centres undefined): the T/C (endpoint: mean survival time, dose: 2.25 mg/kg/injection, schedule: Q01DX009 (ip), vehicle: saline) was 115 % of control; the T/C (endpoint: mean survival time, dose: 4.5 mg/kg/injection, schedule: Q01DX009 (ip), vehicle: saline) was 116 % of control; the T/C (endpoint: mean survival time, dose: 9.0 mg/kg/injection, schedule: Q01DX009 (ip), vehicle: saline) is 116 % of control; the T/C (endpoint: mean survival time, dose: 18.0 mg/kg/injection, schedule: Q01DX009 (ip), vehicle: saline) is 122 % of control; the T/C (endpoint: mean survival time, dose: 36.0 mg/kg/injection, schedule: Q01DX009 (ip), vehicle: saline) is 192 % of control; the T/C (endpoint: median survival time, dose: 36.0 mg/kg/injection, schedule: Q01DX009 (ip), vehicle: saline) is 178 % of control. The T/C by setting is: (endpoint: median survival time, dose: 54.0 mg/kg/injection, schedule: Q01DX009 (ip), vehicle: saline) 188 % of control; (endpoint: median survival time, dose: 72.0 mg/kg/injection, schedule: Q01DX009 (ip), vehicle: saline) 202 % of control.

For `c1ccc(C[S][Sn]([c]2ccccc2)([c]2ccccc2)[c]2ccccc2)cc1`, the T/C runs as follows: (endpoint: mean survival time, dose: 25.0 mg/kg/injection, schedule: Q04DX002 (ip), vehicle: saline with Tween-80) 91 % of control; (endpoint: mean survival time, dose: 50.0 mg/kg/injection, schedule: Q04DX002 (ip), vehicle: saline with Tween-80) 102 % of control; (endpoint: mean survival time, dose: 100.0 mg/kg/injection, schedule: Q04DX002 (ip), vehicle: saline with Tween-80) 94 % of control.

Take `CC(C)(C)C(=O)OCC1OC(n2ccc(O)cc2=O)C(O)C1O` (centres undefined): the T/C by setting is: (endpoint: median survival time, dose: 67.0 mg/kg/injection, schedule: Q01DX009 (ip), vehicle: saline + Tween-80 + alcohol) 168 % of control; (endpoint: median survival time, dose: 100.0 mg/kg/injection, schedule: Q01DX009 (ip), vehicle: saline + Tween-80 + alcohol) 163 % of control; (endpoint: median survival time, dose: 150.0 mg/kg/injection, schedule: Q01DX009 (ip), vehicle: saline + Tween-80 + alcohol) 150 % of control; (endpoint: median survival time, dose: 225.0 mg/kg/injection, schedule: Q01DX009 (ip), vehicle: saline + Tween-80 + alcohol) 154 % of control.

For the compound `CCN(CC)c1ccc(N=Cc2cc(=O)n(C)c3ccccc23)cc1`, the T/C runs as follows: under setting [1], 102 % of control; (endpoint: mean survival time, dose: 400.0 mg/kg/injection, schedule: Q01DX001 (ip), vehicle: saline with Tween-80) 91 % of control.
